We go through three compounds from patent US20250282726A1, “5-BROMO-2-HYDROXY-N'-[(1E)-1-(PYRIDIN-2-YL) ETHYLIDENE]BENZOHYDRAZIDE AS AN ANTI-CANCER AND ANTIMICROBIAL AGENT” (KING SAUD UNIVERSITY, priority 2024, published 2025).

Type in all cases: cell-based
Test [1] has as its system Escherichia coli (carsgn-2). As to the kind of experiment: Antimicrobial study, diameter of inhibition zone. Particulars: for Diameter of inhibition zones, E. coli: Gram (−) bacteria. How it is done: (§1) Initially, compound L was tested against some Gram-negative and Gram-positive bacteria and the fungus strain.
(§2) Two gram-positive Staphylococcus aureus (cars-2) and Bacillus Megnaterium, two gram-negative Escherichia coli (carsgn-2) and Salmonella Typhi (JCM-1652) bacteria, and two fungal strains Trichoderma harzianum (carsm-2) and Aspergillus niger (carsm-3) were used in this study.

Another test deals with Bacillus Megnaterium. As to the kind of experiment: Antimicrobial study, diameter of inhibition zone. Conditions: for Diameter of inhibition zones, B. megnaterium: Gram (+) bacteria. How it is done:
as §1, §2

Test [2] deals with Salmonella Typhi (JCM-1652). As to the kind of experiment: Antimicrobial study, diameter of inhibition zone. Particulars: for Diameter of inhibition zones, S. typhi: Gram (−) bacteria. How it is done: as §1, §2
Test [3] deals with Staphylococcus aureus (cars-2). As to the kind of experiment: Antimicrobial study, diameter of inhibition zone. Particulars: for Diameter of inhibition zones, S. aureus: Gram (+) bacteria. How it is done: as §1, §2
The subject of test [4] is Aspergillus niger (carsm-3). As to the kind of experiment: Antimicrobial study, diameter of inhibition zone. Particulars: Fungi.
Excerpt: as §2

For test [5], the system named is Trichoderma harzianum (carsm-2). As to the kind of experiment: Antimicrobial study, diameter of inhibition zone. Particulars: Fungi.
Excerpt: as §2

For the next test, the system named is lung cancer (A549). As to the kind of experiment: MTT in vitro cytotoxicity assay. Conditions: Homo sapiens, lung cancer cells, MTT 72 h. How it is done: (§3) Two human cancer cell lines were utilized in the cytotoxicity assay. They were lung cancer (A549) and hepatocellular carcinoma (HepG2). A549 and HepG2 cells were cultured in a DMEM medium supplemented with 10% Fetal Bovine Serum (FBS), and 1% Antibiotic-Antimycotic at 37° C., with 5% CO2 in a 75 cm^2 tissue culture flask.
(§4) The conversion of yellow MTT to purple formazan crystals by mitochondrial dehydrogenase of viable cell enzymes was used to assess the magnitude of cellular cytotoxicity exerted by different concentrations of L as explained earlier Kazi et al. 2023 and modified by Kumar et al. 2022. Briefly, cancer cells were plated in 96-well plates (2×10^3 cells/well) in full cell growth medium and incubated for 24 h at 37° C. under a humidified atmosphere of 5% CO2. The cell medium was then replaced by a cell growth medium containing 5% FBS (DMEM medium), containing different concentrations of L. This experiment was performed in two batches. In the first batch, concentrations of L were 1.95, 3.9, 7.8, 15.6, 31.25, 62.5, 125 and 250 μg/ml with control (without any treatment). In the second batch, concentrations of L were 0.078, 0.156, 0.312, 0.625, 1.25, 2.5, 5.0, and 10.0 μg/mL with control (without any treatment). After 72 hours of incubation, medium in all test and control wells was substituted by 100 µL/well of MTT solution (0.5 mg/mL, in PBS) and incubated for a further 3 h at 37° C. Afterwards, the MTT solution was replaced with 100 μL isopropanol/well to dissolve the purple formazan crystals formed at the bottom of the wells, with shaking for at least 2 h at room temperature in dark. Subsequently, the color intensity in the wells was measured at 549 nm with a Bio-Tek microplate reader (ELX 800; Bio-Tek Instruments, Winooski, VT, USA). The results were analyzed in triplicates and the viability percentage was calculated. The data are presented as the percentages of viable cells in the test wells compared to those of the control group. The following equation was used to calculate the cell viability: […]
(§5) Liver and lung cancer cell lines were used to observe the antiproliferative effects of different concentrations of L as a growth-inhibiting study utilizing MTT-based viability assays. The MTT assay is based on mitochondrial activity. […] The results of both batches are admirable and far better than earlier reported publications. Therefore, we repeated this experiment with lung cancer cell lines and found almost similar results (FIGS. 9 and 10) as were with liver cancer cells.

Test [6] concerns hepatocellular carcinoma (HepG2). As to the kind of experiment: MTT in vitro cytotoxicity assay. Conditions: Homo sapiens, read-out: % cell viability. How it is done:
as §3, §4, §5

For `CO/N=C(\C(=O)N[C@@H]1C(=O)N2C(C(=O)O)=C(CSc3nc(=O)c(=O)[nH]n3C)CS[C@H]12)c1csc(N)n1` [Ceftriaxone, reference compound], the “Diameter of inhibition zones, E. coli” value in test [1] is listed as 38.0 mm. In the test on Bacillus Megnaterium, the “Diameter of inhibition zones, B. megnaterium” value amounted to 50.0 mm. Besides, the “Diameter of inhibition zones, S. typhi” value in test [2] is 44.0 mm. Further, the “Diameter of inhibition zones, S. aureus” value in test [3] came out at 40.0 mm.

As to `C[C@@H]1[C@H](O)[C@@H](C)/C=C/C=C/C=C/C=C/C=C/C=C/C=C/[C@H](O[C@@H]2O[C@H](C)[C@@H](O)[C@H](N)[C@@H]2O)C[C@@H]2O[C@](O)(C[C@@H](O)C[C@@H](O)[C@H](O)CC[C@@H](O)C[C@@H](O)CC(=O)O[C@H]1C)C[C@H](O)[C@H]2C(=O)O` [Amphotericin-B, reference compound], the “Diameter of inhibition zones, A. niger” value in test [4] is given as 8.0 mm. For the same compound, the “Diameter of inhibition zones, T. harzianum” value in test [5] was determined as 17.0 mm.

One may read the viability as the share of living cells, or the viability signal relative to a control. Take `C/C(=N\NC(=O)c1cc(Br)ccc1O)c1ccccn1` [Compound L, 5-bromo-2-hydroxy-N′-[(1E)-1-(pyridin-2-yl)ethylidene]benzohydrazide]: the “Diameter of inhibition zone” value in test [1] (Escherichia coli) is 17 mm; in the test on Bacillus Megnaterium (Bacillus Megaterium), 20 mm; in test [2] (Salmonella typhi) it was 26 mm; in test [3] (Staphylococcus aureus), 24 mm. Moreover, the “Diameter of inhibition zones, E. coli” value in test [1] was 17 mm. Also, the “Diameter of inhibition zones, B. megnaterium” value with Bacillus Megnaterium was 20 mm. In addition, in test [2], the “Diameter of inhibition zones, S. typhi” value came out at 26 mm. In addition, the “Diameter of inhibition zones, S. aureus” value in test [3] turned out to be 24 mm. The “Diameter of inhibition zones, A. niger” value in test [4] was found to be 12 mm. For the same compound, in test [5], the “Diameter of inhibition zones, T. harzianum” value is given as 12 mm. In addition, the viability at 0.078 µg/mL with lung cancer (A549) (0.078 μg/mL, FIG. 4, read-out: % cell viability) was determined as 18.6%; in test [6] (HepG2, 72 h), 34.4%. Also, the viability at 0.156 µg/mL came out at 13.2% in the test with lung cancer (A549) (0.156 μg/mL, FIG. 4, read-out: % cell viability) and 24.4% in test [6] (HepG2, liver cancer cells, 0.156 μg/mL, MTT 72 h, FIG. 2). The viability at 0.312 µg/mL in the test with lung cancer (A549) (0.312 μg/mL, FIG. 4, read-out: % cell viability) worked out at 12.8%; in test [6] (HepG2, liver cancer cells, 0.312 μg/mL, MTT 72 h, FIG. 2) it was 28%. Also, the viability at 0.625 µg/mL in the test with lung cancer (A549) (0.625 μg/mL, FIG. 4, read-out: % cell viability) was 12.3%; in test [6] (HepG2, liver cancer cells, 0.625 μg/mL, MTT 72 h, FIG. 2), 20.3%. Moreover, the viability at 1.25 µg/mL was determined as 12.1% in the test with lung cancer (A549) (1.25 μg/mL, FIG. 4, read-out: % cell viability) and 20.2% in test [6] (HepG2, liver cancer cells, 1.25 μg/mL, MTT 72 h, FIG. 2). The viability at 1.95 µg/mL with lung cancer (A549) (1.95 μg/mL, FIG. 5, read-out: % cell viability) worked out at 18%; in test [6] (HepG2, 72 h), 14.8%. Besides, the viability at 2.5 µg/mL in the test on lung cancer (A549) (2.5 μg/mL, FIG. 4, read-out: % cell viability) came to 11.7%; in test [6] (HepG2, liver cancer cells, 2.5 μg/mL, MTT 72 h, FIG. 2), 12.7%. In addition, the viability at 3.9 µg/mL amounted to 16.7% in the test on lung cancer (A549) (3.9 μg/mL, FIG. 5, read-out: % cell viability) and 12.2% in test [6] (HepG2, liver cancer cells, 3.9 μg/mL, MTT 72 h, FIG. 3). Besides, the viability at 5 µg/mL with lung cancer (A549) (5.0 μg/mL, FIG. 4, read-out: % cell viability) was 11%; in test [6] (HepG2, liver cancer cells, 5.0 μg/mL, MTT 72 h, FIG. 2), 10.9%. Moreover, the viability at 7.8 µg/mL amounted to 12.5% in the test on lung cancer (A549) (7.8 μg/mL, FIG. 5, read-out: % cell viability) and 9.57% in test [6] (HepG2, liver cancer cells, 7.8 μg/mL, MTT 72 h, FIG. 3). Also, the viability at 10 µg/mL with lung cancer (A549) (10.0 μg/mL, FIG. 4, read-out: % cell viability) amounted to 11.1%; in test [6] (HepG2, liver cancer cells, 10.0 μg/mL, MTT 72 h, FIG. 2), 10.4%. Further, the viability at 15.6 µg/mL in the test on lung cancer (A549) (15.6 μg/mL, FIG. 5, read-out: % cell viability) turned out to be 11.8%; in test [6] (HepG2, liver cancer cells, 15.6 μg/mL, MTT 72 h, FIG. 3), 8.96%. Further, the viability at 31.25 µg/mL in the test on lung cancer (A549) (31.25 μg/mL, FIG. 5, read-out: % cell viability) came to 11.7%; in test [6] (HepG2, liver cancer cells, 31.25 μg/mL, MTT 72 h, FIG. 3), 9.09%. Further, the viability at 62.5 µg/mL in the test on lung cancer (A549) (62.5 μg/mL, FIG. 5, read-out: % cell viability) was found to be 11.4%; in test [6] (HepG2, liver cancer cells, 62.5 μg/mL, MTT 72 h, FIG. 3) it was 8.86%. Moreover, the viability at 125 µg/mL with lung cancer (A549) (125 μg/mL, FIG. 5, read-out: % cell viability) was determined as 11.6%; in test [6] (HepG2, liver cancer cells, 125 μg/mL, MTT 72 h, FIG. 3), 9.34%. Also, the viability at 250 µg/mL turned out to be 11.6% with lung cancer (A549) (250 μg/mL, FIG. 5, read-out: % cell viability) and 9.38% in test [6] (HepG2, liver cancer cells, 250 μg/mL, MTT 72 h, FIG. 3).
